Laboratory results published in US12286442B2, “Methods and materials for increasing transcription factor eb polypeptide levels” (University of Pittsburgh—Of the Commonwealth System of …, priority 2019, dated 2025).

Key:
[1] = test system: BEAS-2B cells; assay: Toxicity: compound concentration needed to induce greater than 50 percent of cell loss; type: cell-based, human; conditions: 18 hours incubation
Method: (§1) Approximately 2300 primary and immortalized human bronchial epithelial cells (BEAS-2B) stably expressing TFEB-EGFP in 25 μL of HITEs media with 10% FBS were dispensed into 384 well plate (Black with glass bottom) and incubated for 8 hours. Compound serial dilution (DMEM low glucose media with 2% FBS, 25 μL volume) were prepared using a robotic liquid hander. Compound solution were then added to the cell plate and incubated for 18 hours. Cells were then fixed with 4% PFA followed by DAPI staining. TFEB localization was imaged on the GFP channel along with the DAPI signal using a Cytation 5 high content imager. Images were processed through Biotek Gen5 software. Specifically, the DAPI signal was used as the primary mask to quantify the nuclear TFEB-GFP signal. Cytosolic TFEB-GFP signal was quantified through expanding the primary mask. The TFEB nuclear/cytosol ratios were calculated from nuclear TFEB-GFP signal/cytosol TFEB-GFP signal, which determined the compound efficacies.
Toxicity was determined by determining the compound concentration needed to induce greater than 50 percent of cell loss. For toxicity, cell loss of greater than 50 percent at a concentration that equals or is greater than 25 μM was represented as cell loss of greater than 50 percent at a concentration less than 25 μM and greater than 1 μM was represented as and cell loss of greater than 50 percent at a concentration that equals or is less than 1 μM was represented as “+++.” The assay results for compounds 1-202, 214-248, 332, 333, and 352-402 are shown in Table A.

[2] = test system: TFEB; assay: High content screen measuring TFEB nuclear accumulation (TFEB nuclear/cytosol ratio) in BEAS-2B cells stably expressing TFEB-EGFP; type: cell-based, human; conditions: 18 hours incubation
Method: FIG. 3. High content screen assay (384 well) measuring TFEB nuclear accumulation. Approximately 2500 primary and immortalized human bronchial epithelial cells (BEAS-2B) stably expressing TFEB-EGFP in 25 μL of HITEs media with 10% FBS were dispensed into 384 well plate (Black with glass bottom) and incubated for 8 hours. Compound serial dilution (DMEM low glucose media with 2% FBS, 25 μL volume) were prepared using a robotic liquid hander. Compound solutions were then added to the cell plate and incubated for 18 hours. Cells were then fixed with 4% PFA followed by DAPI staining. TFEB localization was imaged on the GFP channel along with the DAPI signal using a Cytation 5 high content imager. Images were processed through Biotek Gen5 software; specifically, the DAPI signal was used as the primary mask to quantify the nuclear TFEB-GFP signal. The cytosolic TFEB-GFP signal was quantified through expanding the primary mask. The TFEB nuclear/cytosol ratios were calculated from nuclear TFEB-GFP signal/cytosol TFEB-GFP signal, which determined the compound efficacy. […] Compound activities (μM) were determined by the minimal compound concentration needed to increase TFEB nuclear/cytosol ratio by 25%. Activity: “−” equals >25 μM; “+” equals between 25 μM and >10 μM; “++” equals between ≤10 μM and >1 μM; and “+++” equals […]. N=4.
as §1
Compounds efficacies (μM) were determined by the minimal compound concentration needed to increase TFEB nuclear/cytosol ratio by 25%. Activity: “+” equals >25 μM; “++” equals between ≤25 μM and >1 μM; and “+++” equals ≤1 μM.
A high-content imaging screen was conducted using Beas2B cells that stably express GFP-TFEB.

SMILES | toxicity (compound concentration needed to induce greater than 50 percent of cell loss) [1] | efficacy (minimal compound concentration needed to increase TFEB nuclear/cytosol ratio by 25%) [2]
Cc1cc(F)cc(Nc2nc(-c3ccncc3)nc3ccccc23)c1 [Compound 1] | + (cell loss of greater than 50 percent at a concentration that equals or is greater than 25 μM was represented as) | +++ (“+++” equals ≤1 μM)
Cc1cc(C)cc(Nc2nc(-c3ccncc3)nc3ccccc23)c1 [Compound 2] | + (cell loss of greater than 50 percent at a concentration that equals or is greater than 25 μM was represented as) | +++ (“+++” equals ≤1 μM)
NC(=O)c1cccc(Nc2nc(-c3ccncc3)nc3ccccc23)c1 [Compound 3] | + (cell loss of greater than 50 percent at a concentration that equals or is greater than 25 μM was represented as) | +++ (“+++” equals ≤1 μM)
CN(c1cccc(F)c1)c1nc(-c2ccncc2)nc2ccccc12 [Compound 4] | +++ (cell loss of greater than 50 percent at a concentration that equals or is less than 1 μM was represented as “+++.”) | +++ (“+++” equals ≤1 μM)
O=C(c1cccc(F)c1)c1nc(-c2ccncc2)nc2ccccc12 [Compound 5] | + (cell loss of greater than 50 percent at a concentration that equals or is greater than 25 μM was represented as) | + (“+” equals >25 μM)
OC(c1cccc(F)c1)c1nc(-c2ccncc2)nc2ccccc12 (stereo not shown) [Compound 6] | + (cell loss of greater than 50 percent at a concentration that equals or is greater than 25 μM was represented as) | + (“+” equals >25 μM)
Fc1cccc(Cc2nc(-c3ccncc3)nc3ccccc23)c1 [Compound 7] | + (cell loss of greater than 50 percent at a concentration that equals or is greater than 25 μM was represented as) | + (“+” equals >25 μM)
Fc1cccc(Nc2nc(-c3cncnc3)nc3ccccc23)c1 [Compound 8] | + (cell loss of greater than 50 percent at a concentration that equals or is greater than 25 μM was represented as) | + (“+” equals >25 μM)
O=[N+]([O-])c1ccc(-c2nc(Nc3cccc(F)c3)c3ccccc3n2)cc1 [Compound 9] | + (cell loss of greater than 50 percent at a concentration that equals or is greater than 25 μM was represented as) | + (“+” equals >25 μM)
Cc1cc(Nc2nc(-c3ccncc3)nc3ccccc23)cc(C(F)(F)F)c1 [Compound 10] | + (cell loss of greater than 50 percent at a concentration that equals or is greater than 25 μM was represented as) | + (“+” equals >25 μM)
c1ccc2c(Nc3ccc4cn[nH]c4c3)nc(-c3ccncc3)nc2c1 [Compound 11] | + (cell loss of greater than 50 percent at a concentration that equals or is greater than 25 μM was represented as) | +++ (“+++” equals ≤1 μM)
c1ccc2c(Nc3ccc4c(c3)OCO4)nc(-c3ccncc3)nc2c1 [Compound 12] | + (cell loss of greater than 50 percent at a concentration that equals or is greater than 25 μM was represented as) | +++ (“+++” equals ≤1 μM)
c1ccc2c(Nc3ccc4cnccc4c3)nc(-c3ccncc3)nc2c1 [Compound 14] | + (cell loss of greater than 50 percent at a concentration that equals or is greater than 25 μM was represented as) | + (“+” equals >25 μM)
FC1(F)Oc2ccc(Nc3nc(-c4ccncc4)nc4ccccc34)cc2O1 [Compound 17] | + (cell loss of greater than 50 percent at a concentration that equals or is greater than 25 μM was represented as) | + (“+” equals >25 μM)
Fc1cc(Nc2nc(-c3ccncc3)nc3ccccc23)cc(C(F)(F)F)c1 [Compound 18] | + (cell loss of greater than 50 percent at a concentration that equals or is greater than 25 μM was represented as) | + (“+” equals >25 μM)
COc1cc(F)cc(Nc2nc(-c3ccncc3)nc3ccccc23)c1 [Compound 19] | + (cell loss of greater than 50 percent at a concentration that equals or is greater than 25 μM was represented as) | + (“+” equals >25 μM)
COc1cc(C)cc(Nc2nc(-c3ccncc3)nc3ccccc23)c1 [Compound 20] | + (cell loss of greater than 50 percent at a concentration that equals or is greater than 25 μM was represented as) | ++ (“++” equals between ≤25 μM and >1 μM)
CCc1cc(F)cc(Nc2nc(-c3ccncc3)nc3ccccc23)c1 [Compound 21] | + (cell loss of greater than 50 percent at a concentration that equals or is greater than 25 μM was represented as) | + (“+” equals >25 μM)
CCc1cc(C)cc(Nc2nc(-c3ccncc3)nc3ccccc23)c1 [Compound 22] | + (cell loss of greater than 50 percent at a concentration that equals or is greater than 25 μM was represented as) | + (“+” equals >25 μM)
Cn1ncc2ccc(Nc3nc(-c4ccncc4)nc4ccccc34)cc21 [Compound 23] | + (cell loss of greater than 50 percent at a concentration that equals or is greater than 25 μM was represented as) | +++ (“+++” equals ≤1 μM)
c1ccc2c(Nc3ccc4cnsc4c3)nc(-c3ccncc3)nc2c1 [Compound 24] | + (cell loss of greater than 50 percent at a concentration that equals or is greater than 25 μM was represented as) | +++ (“+++” equals ≤1 μM)
c1ccc2c(Nc3ccc4cc[nH]c4c3)nc(-c3ccncc3)nc2c1 [Compound 25] | ++ (cell loss of greater than 50 percent at a concentration less than 25 μM and greater than 1 μM was represented as) | +++ (“+++” equals ≤1 μM)
Cn1ccc2cc(Nc3nc(-c4ccncc4)nc4ccccc34)ccc21 [Compound 26] | +++ (cell loss of greater than 50 percent at a concentration that equals or is less than 1 μM was represented as “+++.”) | +++ (“+++” equals ≤1 μM)
